Source: ChEMBL document CHEMBL1201862, “PubChem BioAssay data set” (2004)
Calls of active or inactive are those of the source.

Assays:
[1] = inhibitors of HIV Env-driven cell fusion, dose response, cherry-pick (AID 652057); assay type: functional, cell-based
[2] = ZM109 Env clade C HIV-1 fusion inhibitors, dose response, HeLa effector, CEM target cells, luciferase, cherry-pick (AID 652058); assay type: functional, cell-based
[3] = inhibitors of clade B AD8 Env fusion, dose response, cell-based, cherry-pick (AID 652062); assay type: functional;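 note: luciferase signal from cell-cell fusion driven by HIV-1 clade B AD8 Env; potency is for inhibitors of fusion seen as a drop in luminescence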
[4] = growth suppression of PTEN-null colon cells, dose response, cell-based, HCT116 PTEN knockout (AID 1047); assay type: functional;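 note: HCT116 colon tumor cells with PTEN knocked out; cells exposed to compound for 60 hours before readout; potency for loss of cell viability measured by luminescence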
[5] = growth suppression of beta-catenin-knockout colon cells, dose response, cell-based, HCT116, human colon tumor (AID 1045); assay type: functional;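 note: HCT116 colon tumor cells with beta catenin knocked out; cells exposed to compound for 60 hours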
[6] = THP-1 cell cytotoxicity, dose response, cytotoxicity control for non-replicating M. tuberculosis project (AID 489025); assay type: functional
[7] = Luminescence Cell-Based Dose Retest to Confirm Inhibitors of Cancer Stem Cells. [Related pubchem assays (depositor defined):AID2717, AID2721]; assay type: functional; conditions: Homo sapiens
cells = assay type: functional
Caspase-3 = target: T1, Caspase-3 (Homo sapiens, UniProt P42574); assay type: functional;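 note: Dose-response selectivity test against caspase-3 for candidate inhibitors of sentrin-specific proteases (SENPs)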
T1 sequence (P42574 whole entry): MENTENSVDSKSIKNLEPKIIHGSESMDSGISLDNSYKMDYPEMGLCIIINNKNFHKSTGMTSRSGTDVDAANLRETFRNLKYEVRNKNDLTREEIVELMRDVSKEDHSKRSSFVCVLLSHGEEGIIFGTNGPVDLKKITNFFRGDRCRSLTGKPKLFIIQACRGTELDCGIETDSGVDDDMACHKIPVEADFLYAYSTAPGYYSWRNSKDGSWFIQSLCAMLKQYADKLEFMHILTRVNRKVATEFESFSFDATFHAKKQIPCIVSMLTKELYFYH

[8] = target: T2, Sentrin-specific protease 7 (Homo sapiens, UniProt Q9BQF6); assay type: functional;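 note: Luminescence-based dose-response confirmation of ultra-high-throughput screening hits, measuring inhibition of SENP7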
T2 sequence (Q9BQF6 whole entry): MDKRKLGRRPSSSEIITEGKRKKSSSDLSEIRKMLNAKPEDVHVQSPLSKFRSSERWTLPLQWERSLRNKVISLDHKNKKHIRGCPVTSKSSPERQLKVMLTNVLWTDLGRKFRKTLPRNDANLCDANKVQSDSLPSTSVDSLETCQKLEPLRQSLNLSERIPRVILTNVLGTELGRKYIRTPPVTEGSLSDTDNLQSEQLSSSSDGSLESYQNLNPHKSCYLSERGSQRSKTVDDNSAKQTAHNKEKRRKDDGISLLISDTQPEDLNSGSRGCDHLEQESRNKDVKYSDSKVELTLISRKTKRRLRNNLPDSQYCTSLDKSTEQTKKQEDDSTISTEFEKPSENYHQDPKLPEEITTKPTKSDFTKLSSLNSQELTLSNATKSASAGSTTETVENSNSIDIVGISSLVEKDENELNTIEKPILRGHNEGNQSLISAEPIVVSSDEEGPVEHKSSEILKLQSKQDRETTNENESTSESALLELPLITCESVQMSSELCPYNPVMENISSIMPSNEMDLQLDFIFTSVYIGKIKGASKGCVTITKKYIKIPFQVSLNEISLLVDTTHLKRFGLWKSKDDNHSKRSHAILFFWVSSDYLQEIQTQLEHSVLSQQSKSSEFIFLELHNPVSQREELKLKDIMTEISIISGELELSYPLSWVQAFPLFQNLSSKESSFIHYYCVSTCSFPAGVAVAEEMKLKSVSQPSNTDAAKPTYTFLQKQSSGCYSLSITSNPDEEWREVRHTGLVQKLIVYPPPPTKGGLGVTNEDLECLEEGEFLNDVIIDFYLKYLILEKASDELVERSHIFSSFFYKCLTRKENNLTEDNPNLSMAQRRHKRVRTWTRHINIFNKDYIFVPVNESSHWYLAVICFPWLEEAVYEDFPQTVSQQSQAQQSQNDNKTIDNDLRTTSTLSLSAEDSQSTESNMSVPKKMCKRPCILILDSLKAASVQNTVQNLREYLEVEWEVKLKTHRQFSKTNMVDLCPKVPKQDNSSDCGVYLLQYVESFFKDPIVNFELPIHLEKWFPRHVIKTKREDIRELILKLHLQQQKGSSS

[9] = target: T3, Sentrin-specific protease 6 (Homo sapiens, UniProt Q9GZR1); assay type: functional;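 note: Luminescence-based dose-response confirmatory assay of SENP6 inhibition, following up an ultra-high-throughput screen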
T3 sequence (Q9GZR1 whole entry): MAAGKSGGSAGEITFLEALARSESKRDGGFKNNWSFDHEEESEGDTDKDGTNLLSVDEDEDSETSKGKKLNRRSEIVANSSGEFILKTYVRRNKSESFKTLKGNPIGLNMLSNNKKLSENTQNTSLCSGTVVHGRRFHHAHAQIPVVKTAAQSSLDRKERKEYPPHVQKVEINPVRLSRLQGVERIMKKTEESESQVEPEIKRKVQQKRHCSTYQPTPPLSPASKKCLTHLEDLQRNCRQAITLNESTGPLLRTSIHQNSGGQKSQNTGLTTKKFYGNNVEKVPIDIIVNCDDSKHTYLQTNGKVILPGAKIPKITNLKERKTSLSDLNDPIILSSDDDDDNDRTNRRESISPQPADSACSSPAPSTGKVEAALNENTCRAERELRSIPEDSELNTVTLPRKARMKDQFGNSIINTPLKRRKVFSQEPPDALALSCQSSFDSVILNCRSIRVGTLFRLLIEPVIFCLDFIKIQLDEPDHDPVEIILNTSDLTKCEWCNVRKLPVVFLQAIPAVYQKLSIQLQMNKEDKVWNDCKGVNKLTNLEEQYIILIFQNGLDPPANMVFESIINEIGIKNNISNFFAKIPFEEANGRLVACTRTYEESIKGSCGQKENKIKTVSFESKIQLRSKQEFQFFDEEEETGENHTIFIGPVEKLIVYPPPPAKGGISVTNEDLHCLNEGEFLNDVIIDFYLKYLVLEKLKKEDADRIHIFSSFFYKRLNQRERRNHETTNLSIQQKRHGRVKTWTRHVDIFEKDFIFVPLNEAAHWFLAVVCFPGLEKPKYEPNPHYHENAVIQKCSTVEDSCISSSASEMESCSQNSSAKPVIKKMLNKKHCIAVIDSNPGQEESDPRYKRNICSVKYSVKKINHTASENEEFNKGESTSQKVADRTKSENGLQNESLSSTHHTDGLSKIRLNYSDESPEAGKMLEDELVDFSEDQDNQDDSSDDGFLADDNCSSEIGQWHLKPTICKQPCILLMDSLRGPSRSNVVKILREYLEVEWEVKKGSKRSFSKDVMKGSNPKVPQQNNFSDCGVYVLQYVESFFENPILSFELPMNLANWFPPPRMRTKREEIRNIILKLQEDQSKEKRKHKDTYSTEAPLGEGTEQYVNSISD

[10] = target: T4, Sentrin-specific protease 8 (Homo sapiens, UniProt Q96LD8); assay type: functional;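 note: luminescence read-out of SENP8 inhibition, dose-response confirmation following an ultra-high-throughput screen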
T4 sequence (Q96LD8 whole entry): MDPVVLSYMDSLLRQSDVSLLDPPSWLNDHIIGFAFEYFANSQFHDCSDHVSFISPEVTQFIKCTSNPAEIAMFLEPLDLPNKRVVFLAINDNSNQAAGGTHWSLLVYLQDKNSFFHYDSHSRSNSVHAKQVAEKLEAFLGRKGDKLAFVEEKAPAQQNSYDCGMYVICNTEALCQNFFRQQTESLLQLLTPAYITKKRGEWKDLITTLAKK

[11] = Luminescence Cell-Based Dose Confirmation HTS to Identify Activators of 5'UTR Stem-Loop Driven Alpha-Synuclein mRNA Translation in H4 Neuroglioblastoma Cells. [Related pubchem assays: 1829 (Project Summary), 1814 (Primary HTS)]; assay type: functional
[12] = Luminescence Cell-Based Dose Response HTS to Identify Activators of Luciferase Translation or Activity in H4 […] Cells. [Related pubchem assays: 1829 (Project Summary), 1814 (Primary HTS)]; assay type: functional
H4 = experiment: Luminescence Cell-Based Dose Response HTS to Identify Activators of 5'UTR Stem-Loop Driven Prion Protein mRNA Translation in H4 Neuroglioblastoma Cells. [Related pubchem assays: 1829 (Project Summary), 1814 (Primary HTS)]; assay type: functional; conditions: Homo sapiens
Nonstructural protein 1 = Nonstructural protein 1 (Influenza A virus, UniProt Q194T2); assay type: functional, Influenza A virus (A/California/07/2009(H1N1))
[13] = intracellular Trypanosoma cruzi inhibitors in host cells – cell-based, plate reader, cherry-pick samples, set 3, dose response (AID 651818); assay type: functional;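 note: compounds incubated with infected cells for about four days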
[14] = target: T5, Rac GTPase-activating protein 1 (Homo sapiens, UniProt Q9H0H5); experiment: MgcRacGAP GTPase-activating activity inhibitors, confirmation, biochemical, ADP Hunter fluorescence, primary and confirmatory (AID 624330); assay type: functional
T5 sequence (Q9H0H5 whole entry): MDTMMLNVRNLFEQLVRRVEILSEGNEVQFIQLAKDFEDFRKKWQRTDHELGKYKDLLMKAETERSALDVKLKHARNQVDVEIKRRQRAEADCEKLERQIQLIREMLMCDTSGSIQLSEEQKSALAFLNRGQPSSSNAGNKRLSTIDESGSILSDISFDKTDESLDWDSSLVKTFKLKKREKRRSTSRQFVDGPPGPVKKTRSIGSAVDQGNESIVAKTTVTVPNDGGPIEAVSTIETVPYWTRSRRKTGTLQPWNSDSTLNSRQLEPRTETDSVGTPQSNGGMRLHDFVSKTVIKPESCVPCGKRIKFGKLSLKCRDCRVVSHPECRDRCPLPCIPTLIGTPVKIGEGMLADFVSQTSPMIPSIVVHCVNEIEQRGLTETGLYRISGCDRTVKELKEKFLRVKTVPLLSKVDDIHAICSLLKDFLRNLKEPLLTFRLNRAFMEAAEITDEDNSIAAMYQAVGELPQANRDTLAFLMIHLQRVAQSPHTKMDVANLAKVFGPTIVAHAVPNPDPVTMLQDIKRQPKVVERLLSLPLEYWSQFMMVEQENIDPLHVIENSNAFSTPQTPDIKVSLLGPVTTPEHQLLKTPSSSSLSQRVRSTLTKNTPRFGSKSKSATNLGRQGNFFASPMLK

HEK293 [15] = experiment: NOD1 signaling inhibitors, primary screen, cell-based, luminescence, uHTS (AID 1578); assay type: functional; conditions: Homo sapiens
HEK293 [16] = experiment: cells; assay type: functional, cell-based; conditions: Homo sapiens
HEK293 [17] = experiment: cells; assay type: functional, cell-based; conditions: Homo sapiens; remark: listed apart in the source
HEK293 [18] = experiment: NOD2 signaling inhibitors in MDP-stimulated cells, cell-based, uHTS, luminescence (AID 2001); assay type: functional; conditions: Homo sapiens

Nonstructural protein 1, sequence (Q194T2 whole entry): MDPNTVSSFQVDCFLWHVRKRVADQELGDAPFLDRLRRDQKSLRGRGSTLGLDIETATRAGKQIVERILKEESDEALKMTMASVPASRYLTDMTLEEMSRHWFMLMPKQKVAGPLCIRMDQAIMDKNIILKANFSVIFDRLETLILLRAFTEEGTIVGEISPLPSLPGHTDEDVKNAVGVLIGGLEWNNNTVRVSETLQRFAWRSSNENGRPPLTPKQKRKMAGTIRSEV

SMILES	IC50 (Caspase-3)	IC50 [8]	IC50 [9]	IC50 [10]	AC50 [13]	further results
O=C(NNS(=O)(=O)c1ccc(F)cc1F)C1Cc2c(ccc3ccccc23)O1 (configuration not stated)						AC50 [1]: 8.04 µM (active); AC50 [2]: 37.5 µM (active); AC50 [3]: 24.2 µM (active)
CCOC(=O)c1c(NC(=O)C2COc3ccccc3O2)sc2c1CC(C)(C)NC2(C)C (configuration not stated)						EC50 [4]: 10.6 µM (active); EC50 [5]: 10.3 µM (active); CC50 [6]: 25.3 µM (active); AC50 [7]: 8.55 µM (active); IC50 (cells): 36.2 µM (active)
CCc1ccc(-c2csc(NC(=O)C3=COCCO3)n2)cc1	38.6 µM (active)	6.81 µM (active)	27 µM (active)	48.5 µM (active)		
O=C(Nc1ccccc1Cl)Nc1cccc2cccnc12	29.4 µM (active)	7.41 µM (active)	> 100 µM (inactive)	6.08 µM (active)		
O=[N+]([O-])c1nn(-c2ccc3c(c2)OCCO3)[n+]([O-])c1NCc1ccccc1Cl	> 100 µM (inactive)	3.36 µM (active)	> 100 µM (inactive)	> 100 µM (inactive)		
Clc1ccc(OCc2nc(-c3ccncc3)no2)c(Cl)c1	38.8 µM (active)	9.12 µM (active)	28.8 µM (active)	36.6 µM (active)		
S=C(NNc1ccc2ccccc2c1)NC1CCCCC1						EC50 [11]: 42.1 µM (active); EC50 [12]: 30.4 µM (active); EC50 (H4): 9.85 µM (active); IC50 (Nonstructural protein 1): > 100 µM (active)
Cc1cccc(C(=O)n2c(=S)nc3cc(C)ccn32)c1	87.3 µM (active)	11 µM (active)	86.4 µM (active)	> 100 µM (inactive)		
C[C@@H]1CN([C@@H](C)CO)C(=O)c2cccc(NC(=O)c3nc4ccccc4s3)c2O[C@H]1CN(C)Cc1ccc2c(c1)OCO2					1.78 µM (active)	
COc1ccc(NC(=O)Nc2ccc3c(c2)C(=O)N([C@H](C)CO)C[C@H](C)[C@@H](CN(C)CC2CCCCC2)OCCCC[C@@H](C)O3)cc1					3.41 µM (active)	
C[C@@H]1CN([C@H](C)CO)C(=O)Cc2cc(NS(=O)(=O)c3ccccc3)ccc2O[C@@H]1CN(C)Cc1ccc(Cl)c(Cl)c1					3.52 µM (active)	
C[C@H](CO)N1C[C@H](C)[C@H](CN(C)Cc2ccc(Cl)c(Cl)c2)Oc2c(NC(=O)c3ccc(-c4nccs4)cc3)cccc2C1=O					4.5 µM (active)	
C[C@H]1CN([C@@H](C)CO)C(=O)c2cccc(NC(=O)c3ccc(-c4nccs4)cc3)c2O[C@H]1CN(C)Cc1ccc(C(=O)Nc2ccccc2N)cc1					1.49 µM (active)	
CN(c1ccccc1)c1ccc(/C=N/N2CCOCC2)cc1	18.8 µM (active)	8.89 µM (active)	27.3 µM (active)	39.5 µM (active)		IC50 (Nonstructural protein 1): > 100 µM (active); IC50 [14]: 37.2 µM (active)
COc1ccc(-c2nc3ccccc3c(=O)[nH]2)cc1	6.83 µM (active)	6.89 µM (active)	17.3 µM (active)	> 100 µM (inactive)		
CC1(C)C=C2[C@H]3CC[C@@H]4[C@@]5(C)CCC(=O)C(C)(C)[C@@H]5CC[C@@]4(C)[C@]3(C)CC[C@@]2(C(=O)O)CC1 [MORONIC ACID]						EC50 (HEK293 [15]): 2.27 µM (active); IC50 (HEK293 [16]): 10.9 µM (active); IC50 (HEK293 [17]): 15.7 µM (active); IC50 (HEK293 [18]): 8.08 µM (active); AC50 [7]: 3.35 µM (active)
